Holding throughout (format): cell-based
The test system of assay [1] is MDA-MB-468 cells. Put plainly: MTT viability, EJ1 in combination with pathway inhibitors or ROS scavenger. The conditions noted are these: MDA-MB-468, 20 μmol/l EJ1 plus inhibitor. How it is done: (a) MDA-MB-468 cells were treated with either 20 μmol/l CP (A-D) or 20 μmol/l EJ1 (E-H) for 0 minutes (A, E), 15 minutes (B, F), 60 minutes (C, G), or 16 hours (D, H). Arrows indicate membrane blebs and arrowheads indicate intracellular vacuoles. (b) BxPC3 cells were serum starved overnight, then treated with 20 μmol/l EJ1 and 50 ng/ml Texas-Red-labeled EGF, and imaged for 30 minutes with an Olympus IX71 deconvolution microscope. Panels A-F are bright field images, D′-F′ are red channel images (Texas-Red-labeled EGF). Arrowheads indicate locations of EGF accumulation on membrane protrusions. (c) Diagram depicts Ca^2+/CaM-regulated signaling pathway, and inhibitors acting at different targets are indicated. (d) MDA-MB-468 cells were pretreated with 50 μmol/l W-13 (D-F), 10 μmol/l ML-7 (G-I), or 10 μmol/l Y-27632 (J-L) in complete medium at 37° C. for 30 minutes and then treated with vehicle, 20 μmol/l CP, or 20 μmol/l EJ1 in combination with W-13, ML-7, or Y-27632 in complete medium at 37° C. for 15 minutes. Images represent the bright field images. Arrows indicate membrane blebbing. (e) MDA-MB-468 cells were untreated (UNTX) or treated with water (Vehicle), 20 μmol/l EJ1, 10 μmol/l Y-27632, or 10 μmol/l ML-7 alone or EJ1 in combination with Y-27632 or ML-7, and the viability was assessed by the MTT assay. **P<0.01 (Student's t-test). Error bars, mean±SD. (f) MDA-MB-468 cells were either in serum-free medium (SF) or stimulated with 100 ng/ml EGF (EGF) and then incubated with water (Vehicle), 20 μmol/l CP, 20 μmol/l EJ1, 2 μmol/l ionomycin, 50 μmol/l W-13, 100 μmol/l KN-93, or EJ1 in combination with ionomycin for 15 minutes. Lysates were immunoblotted with antibodies as indicated. (g) Stable, neomycin-selected NIH3T3 cell lines were created, expressing either Rac1 wild-type (Rac1-WT) or Rac1 constitutively active mutant (Rac1-Q61L). Cells were treated with water (Vehicle), 20 μmol/l CP, or 20 μmol/l EJ1, and the viability was assessed by MTT. ***P<0.001 (Student's t-test). Error bars, mean±SD.
(§1) (a) MDA-MB-468 cells were incubated in serum-free media with 200 nmol/l MitoTracker Red CMXRos and 5 μg/ml Hoechst 33342 nuclear stain, followed by either 20 μmol/l CP (A-B′) or 20 μmol/l EJ1 (C-D′), and imaged at 0 minutes (A, A′; and C, C′) or at 5 minutes (B, B′; and D, D′). (b) MDA-MB-468 cells were incubated with 1 μmol/l JC-1, followed by 20 μmol/l CP, 20 μmol/l EJ1, or 50 μmol/l CCCP. Results were calculated as the ratio of the 514/590 nm to 514/529 nm fluorescences and the ratio for CP-treated sample was set as 1. *P<0.05, Student's t-test. Error bars, mean±SD. […] Cells were then sorted by flow cytometer and analyzed by Cellquest Pro 4.0 software. The results are expressed as the percentage of DCFH fluorescence-positive cells. *P<0.05, Student's t-test. […]

Assay [2] concerns MDA-MB-468 cells. The experiment in a line: Intracellular ROS by flow cytometry, DCFH-DA. As to conditions: 20 μmol/l EJ1, 0.5 mmol/l NAC. As for the experimental part:
as §1, with “mean±SD. (c) T47D cells were treated with MitoTracker (shown in D-F and F′) and Hoechst 33342 as in (a) and incubated with 20 μmol/l FITC-labeled EJ1 (shown in A-C and C′).” for “mean±SD.”
Generation of intracellular ROS was evaluated by flow cytometry using the 2′,7′-dichlorofluorescein diacetate probe (Invitrogen). Fluorescent cells were analyzed by a FACScan flow cytometer (BD Biosciences) at the Flow Cytometry Shared Service in the Arizona Cancer Center, and the excitation/emission wavelengths were set at 488 and 525 nm, respectively.

The next assay deals with CaMKII. Put plainly: CaMKII phosphorylation, immunoblot in MDA-MB-468 cells. The conditions noted are these: MDA-MB-468, EGF or ionomycin, 15 minutes. How it is done: (a) MDA-MB-468 cells were treated with either 20 μmol/l CP (A-D) or 20 μmol/l EJ1 (E-H) for 0 minutes (A, E), 15 minutes (B, F), 60 minutes (C, G), or 16 hours (D, H). […] (b) BxPC3 cells were serum starved overnight, then treated with 20 μmol/l EJ1 and 50 ng/ml Texas-Red-labeled EGF, and imaged for 30 minutes with an Olympus IX71 deconvolution microscope. Panels A-F are bright field images, D′-F′ are red channel images (Texas-Red-labeled EGF). […] (c) Diagram depicts Ca^2+/CaM-regulated signaling pathway, and inhibitors acting at different targets are indicated. (d) MDA-MB-468 cells were pretreated with 50 μmol/l W-13 (D-F), 10 μmol/l ML-7 (G-I), or 10 μmol/l Y-27632 (J-L) in complete medium at 37° C. for 30 minutes and then treated with vehicle, 20 μmol/l CP, or 20 μmol/l EJ1 in combination with W-13, ML-7, or Y-27632 in complete medium at 37° C. for 15 minutes. Images represent the bright field images. […] Error bars, mean±SD. (f) MDA-MB-468 cells were either in serum-free medium (SF) or stimulated with 100 ng/ml EGF (EGF) and then incubated with water (Vehicle), 20 μmol/l CP, 20 μmol/l EJ1, 2 μmol/l ionomycin, 50 μmol/l W-13, 100 μmol/l KN-93, or EJ1 in combination with ionomycin for 15 minutes. Lysates were immunoblotted with antibodies as indicated. […] Error bars, mean±SD. […]
(A western blot detects proteins with antibodies after separation by electrophoresis.)

Consider `CC(=O)N[C@@H](CS)C(=O)O` [NAC, N-acetyl cysteine], for which the “effect of co-treatment on EJ1-induced loss of cell viability (MTT)” value in the assay with MDA-MB-468 cells [1] is “significantly rescue EJ1-induced cell death”. Further, in the assay with MDA-MB-468 cells [2], the “intracellular ROS levels (DCF fluorescence)” value was “significantly reduced EJ1-induced ROS levels”.

Turning to `C[C@H](CCC(=O)O)C[C@H](C)C[C@H](C)C(=O)/C=C(\O)[C@H](C)C[C@H](C)C/C=C/[C@@H](C)[C@@H](O)[C@@H](C)[C@@H](O)C[C@@H]1CC[C@@](C)([C@H]2CC[C@@](C)([C@@H](C)O)O2)O1` [ionomycin], the CaMKII phosphorylation result in the assay on CaMKII is listed as “induced CaMKII phosphorylation”.

Source of the values: patent publication US10066004B2 (ARIZONA CANCER THERAPEUTICS, LLC, priority 2010, dated 2018).
